# Like-named read-outs stand apart in the source and are kept apart here.
# How the values were obtained:
# [1] = target: T1, GLS1 (purified recombinant human GAC) (Homo sapiens, UniProt O94925); assay: GLS1 Enzymatic Activity Assay (dual-coupled enzymatic assay); type: biochemical; details: 50 mM potassium phosphate, 1 mM glutamine, read-out: IC50 against GLS1
# T1 sequence (O94925 55-598 isoform O94925-3 limits assumed): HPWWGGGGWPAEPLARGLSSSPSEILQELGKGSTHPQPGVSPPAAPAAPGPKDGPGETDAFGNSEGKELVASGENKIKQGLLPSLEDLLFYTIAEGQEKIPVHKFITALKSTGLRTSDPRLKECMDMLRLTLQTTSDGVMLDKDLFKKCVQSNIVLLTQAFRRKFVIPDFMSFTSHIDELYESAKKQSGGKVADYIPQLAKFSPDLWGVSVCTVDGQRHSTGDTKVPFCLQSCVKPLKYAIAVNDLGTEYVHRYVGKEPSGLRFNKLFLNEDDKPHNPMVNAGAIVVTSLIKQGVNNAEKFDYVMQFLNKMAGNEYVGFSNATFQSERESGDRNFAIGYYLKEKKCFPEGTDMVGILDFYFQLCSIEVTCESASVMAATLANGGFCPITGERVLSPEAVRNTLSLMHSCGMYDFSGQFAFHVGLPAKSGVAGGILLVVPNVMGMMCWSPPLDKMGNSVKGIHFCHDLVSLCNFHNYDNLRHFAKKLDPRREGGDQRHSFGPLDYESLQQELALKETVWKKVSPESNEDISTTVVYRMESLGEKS
# Experimental: GLS1 Enzymatic Activity Assay
# The inhibition of purified recombinant human GAC by varying concentrations of inhibitors is assessed via a dual-coupled enzymatic assay. The glutamate produced by the glutaminase reaction is used by glutamate oxidase to produce α-ketoglutarate, ammonia, and hydrogen peroxide, with this hydrogen peroxide subsequently being used by horseradish peroxidase to produce resorufin in the presence of Amplex UltraRed. The assay buffer consisted of 50 mM HEPES (pH 7.4), 0.25 mM EDTA and 0.1 mM Triton X-100. GAC was incubated with potassium phosphate (10 minutes at room temperature) prior to incubation with inhibitor (10 minutes at room temperature). The final reaction conditions were as follows: 2 nM GAC, 50 mM potassium phosphate, 100 mU/ml glutamate oxidase (Sigma), 1 mM glutamine (Sigma), 100 mU/ml horseradish peroxidase (Sigma), 75 μM Amplex UltraRed (Life Technologies), and 1% (v/v) DMSO. The production of resorufin was monitored on a Perkin Elmer Envision plate reader (excitation 530 nm, emission 590 nm) either in a kinetics or endpoint mode (at 20 minutes). IC50 values were calculated using a four-parameter logistic curve fit.
# A549 cells = assay: Proliferation Assay (A549 viability, Cell Titer Fluor, 72 hours); type: cell-based; details: read-out: EC50 against A549 cell proliferation
# Experimental: A549 cells were routinely maintained in RPMI 1640 media (Gibco catalog number 11875-093) supplemented with 10% dialyzed fetal bovine serum using a humidified incubator (37° C., 5% CO2 and ambient O2). In preparation for the viability assay, cells were inoculated into 384-well black CulturPlates (Perkin Elmer) at a density of 1000 cells/well in a volume of 40 μl. Following a 24-hour incubation at 37° C., 5% CO2 and ambient 02, cells were treated with compound (10 μl) in a final DMSO concentration of 0.5% (v/v). The microplates were then incubated for 72 hours (37° C., 5% CO2 and ambient O2). Cell Titer Fluor (Promega) was subsequently added (10 μl of 6× reagent) and mixed for 15 minutes at room temperature. The plates were then incubated for 30 minutes (37° C., 5% CO2 and ambient O2) and fluorescence was subsequently read on the Perkin Elmer Envision plate reader. EC50 values were calculated using a four-parameter logistic curve fit.
Compound,IC50 [1],EC50 (A549 cells; Homo sapiens),EC50 (A549 cells)
"Cc1cccc(CC(=O)Nc2ccc(C3CCN(c4nnc(C(=O)NCc5cc(C(F)(F)F)ccn5)s4)C3)nn2)n1 (stereo not drawn) [Example 49, 5-(3-(6-(2-(6-methylpyridin-2-yl)acetamido)pyridazin-3-yl)pyrrolidin-1-yl)-N-((4-(trifluoromethyl)pyridin-2-yl)methyl)-1,3,4-thiadiazole-2-carboxamide]",< 100 nM,< 100 nM,
"Cc1cccc(CNC(=O)c2nnc(N3CCC(c4ccc(NC(=O)Cc5cccc(C)n5)nn4)C3)s2)n1 (stereo not drawn) [Example 50, 5-(3-(6-(2-(6-methylpyridin-2-yl)acetamido)pyridazin-3-yl)pyrrolidin-1-yl)-N-((6-methylpyridin-2-yl)methyl)-1,3,4-thiadiazole-2-carboxamide]",< 100 nM,< 100 nM,
"Cc1cc(OC2CC(F)(F)C2)cc(CC(=O)Nc2ccc(C3CCN(c4nnc(C(=O)NCc5ccccn5)s4)C3)nn2)n1 (stereo not drawn) [Example 51, 5-(3-(6-(2-(4-(3,3-difluorocyclobutoxy)-6-methylpyridin-2-yl)acetamido)pyridazin-3-yl)pyrrolidin-1-yl)-N-(pyridin-2-ylmethyl)-1,3,4-thiadiazole-2-carboxamide]",< 100 nM,< 100 nM,
"Cc1cc(OC2CC(F)(F)C2)cc(CC(=O)Nc2ccc(C3CCN(c4nnc(C(=O)NCc5cc(C(F)(F)F)ccn5)s4)C3)nn2)n1 (stereo not drawn) [Example 52, 5-(3-(6-(2-(4-(3,3-difluorocyclobutoxy)-6-methylpyridin-2-yl)acetamido)pyridazin-3-yl)pyrrolidin-1-yl)-N-((4-(trifluoromethyl)pyridin-2-yl)methyl)-1,3,4-thiadiazole-2-carboxamide]",< 100 nM,< 100 nM,
"Cc1cccc(CNC(=O)c2nnc(N3CCC(c4ccc(NC(=O)Cc5cc(OC6CC(F)(F)C6)cc(C)n5)nn4)C3)s2)n1 (stereo not drawn) [Example 53, 5-(3-(6-(2-(4-(3,3-difluorocyclobutoxy)-6-methylpyridin-2-yl)acetamido)pyridazin-3-yl)pyrrolidin-1-yl)-N-((6-methylpyridin-2-yl)methyl)-1,3,4-thiadiazole-2-carboxamide]",< 100 nM,< 100 nM,
"N-(pyridin-2-ylmethyl)-5-(1-(6-(2-(3-(trifluoromethoxy)phenyl)acetamido)pyridazin-3-yl)pyrrolidin-3-yl)-1,3,4-thiadiazole-2-carboxamide-2,2,2-trifluoroacetate [Example 10]",< 100 nM,,100 to 500 nM

# — US10738043B2, “GLS1 inhibitors for treating disease” (Board of Regents, The University of Texas System, priority 2015, dated 2020)
